Data from the NIST ThermoML archive (doi:10.1021/je900131q).
Where “and” joins values, the source holds several entries; their conditions need not be identical. Equal entries are not always repeated.

Conditions: Fluid (supercritical or subcritical phases); for mass density: Buoyancy - hydrostatic balance with magnetic suspension - one sinker; for viscosity: Vibrating wire viscometer

N#N [nitrogen]
Conditions | mass density | viscosity [mPa·s]
293.11 K, 1737.3 kPa | 20.04 kg/m3 | 0.01776
293.11 K, 8684.1 kPa | 100.062 kg/m3 | 0.01931
293.11 K, 12288 kPa | 140.108 kg/m3 | 0.02039
293.12 K, 3456.5 kPa | 39.956 kg/m3 | 0.01807
293.12 K, 5188.4 kPa | 60.007 kg/m3 | 0.01843
293.12 K, 6932.1 kPa | 80.084 kg/m3 | 0.01884
293.12 K, 16079 kPa | 180.081 kg/m3 | 0.02168
293.12 K, 22359 kPa | 240.226 kg/m3 | 0.02399
293.12 K, 24666 kPa | 260.273 kg/m3 | 0.0249
293.13 K, 14176 kPa | 160.309 kg/m3 | 0.02101
293.14 K, 1741.7 kPa | 20.088 kg/m3 | 0.01775
293.14 K, 5190.1 kPa | 60.028 kg/m3 | 0.01841
293.14 K, 5191.3 kPa | 60.033 kg/m3 | 0.0184
293.14 K, 6919.8 kPa | 79.938 kg/m3 | 0.01881
293.14 K, 6919.9 kPa | 79.937 kg/m3 | 0.01881
293.14 K, 18079 kPa | 200.088 kg/m3 | 0.02238
293.15 K, 168.17 kPa | 1.9327 kg/m3 | 0.01754
293.15 K, 257.03 kPa | 2.9592 kg/m3 | 0.01755
293.15 K, 257.04 kPa | 2.9569 kg/m3 | 0.01755
293.15 K, 260.16 kPa | 2.9879 kg/m3 | 0.01754
293.15 K, 348.59 kPa | 4.0063 kg/m3 | 0.01757
293.15 K, 348.6 kPa | 4.0116 kg/m3 | 0.01756
293.15 K, 434.63 kPa | 4.9978 kg/m3 | 0.01756
293.15 K, 438.44 kPa | 5.0442 kg/m3 | 0.01758
293.15 K, 438.45 kPa | 5.045 kg/m3 | 0.01758
293.15 K, 865.03 kPa | 9.9564 kg/m3 | 0.01763
293.15 K, 865.04 kPa | 9.9572 kg/m3 | 0.01763
293.15 K, 867.69 kPa | 9.9877 kg/m3 | 0.01763
293.15 K, 3452.3 kPa | 39.892 kg/m3 | 0.01805
293.15 K, 8683.4 kPa | 100.04 kg/m3 | 0.01928
293.16 K, 87.06 kPa | 1.0006 kg/m3 | 0.0175
293.16 K, 174.08 kPa | 2.0011 kg/m3 | 0.01753
293.16 K, 6917.3 kPa | 79.905 kg/m3 | 0.01881
293.16 K, 8683.4 kPa | 100.03 kg/m3 | 0.01928
293.16 K, 10467 kPa | 120.042 kg/m3 | 0.01983
293.16 K, 10724 kPa | 122.91 kg/m3 and 122.9 kg/m3 | 0.01987
293.16 K, 20166 kPa | 220.109 kg/m3 | 0.02316
293.16 K, 27067 kPa | 279.903 kg/m3 | 0.02585
293.16 K, 30306 kPa | 304.692 kg/m3 | 0.02713
293.17 K, 347.38 kPa | 3.995 kg/m3 | 0.01756
293.17 K, 434.86 kPa | 5.0007 kg/m3 | 0.01757
293.17 K, 30306 kPa | 304.691 kg/m3 | 0.02714
293.18 K, 69.62 kPa | 0.79943 kg/m3 | 0.01749
423.09 K, 1261.4 kPa | 9.9995 kg/m3 | 0.02309
423.09 K, 2533.5 kPa | 20.001 kg/m3 | 0.0232
423.09 K, 7760.6 kPa | 60.009 kg/m3 | 0.02382
423.09 K, 19172 kPa | 140.043 kg/m3 | 0.02569
423.09 K, 25569 kPa | 180.07 kg/m3 | 0.02695
423.1 K, 377.31 kPa | 2.9994 kg/m3 | 0.02301
423.1 K, 629.65 kPa | 5.0007 kg/m3 | 0.02304
423.1 K, 5117.5 kPa | 40.01 kg/m3 | 0.02347
423.1 K, 22320 kPa | 160.186 kg/m3 | 0.02629
423.11 K, 100.56 kPa | 0.79993 kg/m3 | 0.02294
423.11 K, 125.69 kPa | 0.99956 kg/m3 | 0.02295
423.11 K, 251.45 kPa | 1.9998 kg/m3 | 0.02299
423.11 K, 10470 kPa | 79.969 kg/m3 | 0.0242
423.11 K, 13263 kPa | 99.939 kg/m3 | 0.02464
423.12 K, 503.26 kPa | 3.9997 kg/m3 | 0.02303
423.12 K, 16171 kPa | 120.044 kg/m3 | 0.02513
423.15 K, 30228 kPa | 206.995 kg/m3 | 0.02791
423.15 K, 30257 kPa | 207.176 kg/m3 | 0.02792
423.16 K, 30225 kPa | 206.975 kg/m3 | 0.02791
